IC50 data for 7 compounds are collected here from US12291519B2, “2-hydroxycycloalkane-1-carbamoyl” (Idorsia Pharmaceuticals Ltd, priority 2019, dated 2025).

Bounds are passed on as bounds.

One test concerns the target human Gal-3 (hGal-3) (Homo sapiens (Human), UniProt P17931). Kind of test: Competitive binding assay: biotinylated hGal-3 binding to microplate-adsorbed asialofetuin (ASF). Particulars: Activity on hGal-3; binding of biotinylated hGal-3 to ASF-coated plates; mean values. As for the experimental part: (§1) Evaluation of Compound Inhibitory Activity (IC50)
The inhibitory activity of compounds is determined in competitive binding assays. […] Alternatively, and preferably, a human Gal-1 version in which all six cysteines are substituted by serines may be used.
Briefly, compounds are serially diluted in DMSO (working dilutions).
Plates are incubated for 3 hours at 4° C. then washed with cold assay buffer (3×50 uL), incubated for 1 hour with 25 μL/well of a streptavidin-peroxidases solution (diluted in assay buffer to 80 ng/mL) at 4° C., followed by further washing steps with assay buffer (3×50 uL). Finally, 25 μL/well of ABTS substrate is added.
(§2) The calculated IC50 values may fluctuate depending on the daily assay performance. Fluctuations of this kind are known to those skilled in the art. IC50 values from several measurements are given as mean values.

The target in the next test is human Gal-1 (hGal-1). Kind of test: Competitive binding assay: biotinylated hGal-1 binding to microplate-adsorbed asialofetuin (ASF). The settings on record: Activity on hGal-1; binding of biotinylated hGal-1 to ASF-coated plates; mean values. As for the experimental part:
as §1
The inhibitory activity of compounds is determined in competitive binding assays. This spectrophotometric assay measures the binding of biotinylated human Gal-3 (hGal-3) or human Gal-1 (hGAl-1), respectively, to a microplate-adsorbed glycoprotein, asialofetuin (ASF) (Proc Natl Acad Sci USA. 2013 Mar. 26; 110(13):5052-7.). Alternatively, and preferably, a human Gal-1 version in which all six cysteines are substituted by serines may be used.
Briefly, compounds are serially diluted in DMSO (working dilutions). ASF-coated 384 well pates are supplemented with 22.8 μL/well of biotinylated hGal-3 or hGal-1 in assay buffer (i.e. 300-1000 ng/mL biotinylated hGal-3 or hGal-1) to which 1.2 μL of compound working dilutions are added and mixed.
Plates are incubated for 3 hours at 4° C. then washed with cold assay buffer (3×50 uL), incubated for 1 hour with 25 μL/well of a streptavidin-peroxidases solution (diluted in assay buffer to 80 ng/mL) at 4° C., followed by further washing steps with assay buffer (3×50 uL). Finally, 25 μL/well of ABTS substrate is added. OD (410 nm) is recorded after 30 to 45 min and IC50 values are calculated.
as §2

human Gal-3 (hGal-3), sequence (P17931 whole entry): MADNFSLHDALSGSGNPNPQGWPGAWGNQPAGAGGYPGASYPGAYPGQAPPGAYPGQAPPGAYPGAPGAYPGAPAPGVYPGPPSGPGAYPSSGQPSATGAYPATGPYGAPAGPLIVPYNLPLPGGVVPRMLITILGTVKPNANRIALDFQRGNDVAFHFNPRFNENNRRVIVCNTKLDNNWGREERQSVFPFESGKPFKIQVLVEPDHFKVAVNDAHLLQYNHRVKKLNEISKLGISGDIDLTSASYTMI
human Gal-1 (hGal-1), sequence (P09382 2-135 limits assumed): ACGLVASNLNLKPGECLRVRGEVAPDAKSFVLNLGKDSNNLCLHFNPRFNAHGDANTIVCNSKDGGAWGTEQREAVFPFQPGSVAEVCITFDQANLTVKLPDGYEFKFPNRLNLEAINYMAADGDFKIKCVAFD

With `O=C([C@@H]1O[C@H](CO)[C@H](O)[C@H](n2cc(-c3cc(F)c(F)c(F)c3)nn2)[C@H]1O)N(Cc1ccccc1)[C@H]1CCCC[C@@H]1O` [Example 1, (2R,3R,4S,5R,6R)-N-benzyl-3,5-dihydroxy-N-((1S,2S)-2-hydroxycyclohexyl)-6-(hydroxymethyl)-4-(4-(3,4,5-trifluorophenyl)-1H-1,2,3-triazol-1-yl)tetrahydro-2H-pyran-2-carboxamide], the IC50 (in general, the concentration that gives 50% inhibition) came out at 154 nM on human Gal-3 (hGal-3) and 6500 nM on human Gal-1 (hGal-1).

On to `O=C([C@@H]1O[C@H](CO)[C@H](O)[C@H](n2cc(-c3cc(F)c(F)c(F)c3)nn2)[C@H]1O)N(Cc1cccc(Cl)c1)[C@H]1CCCC[C@@H]1O` [Example 2, (2R,3R,4S,5R,6R)-N-(3-chlorobenzyl)-3,5-dihydroxy-N-((1S,2S)-2-hydroxycyclohexyl)-6-(hydroxymethyl)-4-(4-(3,4,5-trifluorophenyl)-1H-1,2,3-triazol-1-yl)tetrahydro-2H-pyran-2-carboxamide], for which the half-inhibitory concentration (IC50) is 301 nM at human Gal-3 (hGal-3) and 22800 nM at human Gal-1 (hGal-1).

Consider `C#Cc1cccc(CN(C(=O)[C@@H]2O[C@H](CO)[C@H](O)[C@H](n3cc(-c4cc(F)c(F)c(F)c4)nn3)[C@H]2O)[C@H]2CCCC[C@@H]2O)c1` [Example 3, (2R,3R,4S,5R,6R)-N-(3-ethynylbenzyl)-3,5-dihydroxy-N-((1S,2S)-2-hydroxycyclohexyl)-6-(hydroxymethyl)-4-(4-(3,4,5-trifluorophenyl)-1H-1,2,3-triazol-1-yl)tetrahydro-2H-pyran-2-carboxamide], for which the IC50 on human Gal-3 (hGal-3) was 471 nM; on human Gal-1 (hGal-1), over 100000 nM.

Consider `O=C([C@@H]1O[C@H](CO)[C@H](O)[C@H](n2cc(-c3cc(F)c(F)c(F)c3)nn2)[C@H]1O)N(CCc1ccccc1)[C@H]1CCCC[C@@H]1O` [Example 4, (2R,3R,4S,5R,6R)-3,5-dihydroxy-N-((1S,2S)-2-hydroxycyclohexyl)-6-(hydroxymethyl)-N-phenethyl-4-(4-(3,4,5-trifluorophenyl)-1H-1,2,3-triazol-1-yl)tetrahydro-2H-pyran-2-carboxamide], for which the half-maximal inhibitory concentration (IC50) at human Gal-3 (hGal-3) is 677 nM; on human Gal-1 (hGal-1), over 100000 nM.

On to `O=C([C@@H]1O[C@H](CO)[C@H](O)[C@H](n2cc(-c3cc(F)c(F)c(F)c3)nn2)[C@H]1O)N(Cc1ccc(Cl)cc1)[C@H]1CCCC[C@@H]1O` [Example 5, (2R,3R,4S,5R,6R)-N-(4-chlorobenzyl)-3,5-dihydroxy-N-((1S,2S)-2-hydroxycyclohexyl)-6-(hydroxymethyl)-4-(4-(3,4,5-trifluorophenyl)-1H-1,2,3-triazol-1-yl)tetrahydro-2H-pyran-2-carboxamide], for which the figures for the concentration for half-maximal inhibition (IC50) at human Gal-3 (hGal-3) and at human Gal-1 (hGal-1) were 174 nM and 18200 nM, respectively.

For the compound `O=C([C@@H]1O[C@H](CO)[C@H](O)[C@H](n2cc(-c3cc(F)c(F)c(F)c3)nn2)[C@H]1O)N(Cc1ccccc1Cl)[C@H]1CCCC[C@@H]1O` [Example 6, (2R,3R,4S,5R,6R)-N-(2-chlorobenzyl)-3,5-dihydroxy-N-((1S,2S)-2-hydroxycyclohexyl)-6-(hydroxymethyl)-4-(4-(3,4,5-trifluorophenyl)-1H-1,2,3-triazol-1-yl)tetrahydro-2H-pyran-2-carboxamide], the IC50 at human Gal-3 (hGal-3) came to 71 nM; at human Gal-1 (hGal-1) it was 1920 nM.

For `O=C([C@@H]1O[C@H](CO)[C@H](O)[C@H](n2cc(-c3cc(F)c(F)c(F)c3)nn2)[C@H]1O)N(Cc1ccccc1C(F)(F)F)[C@H]1CCCC[C@@H]1O` [Example 7, (2R,3R,4S,5R,6R)-3,5-dihydroxy-N-((1S,2S)-2-hydroxycyclohexyl)-6-(hydroxymethyl)-N-(2-(trifluoromethyl)benzyl)-4-(4-(3,4,5-trifluorophenyl)-1H-1,2,3-triazol-1-yl)tetrahydro-2H-pyran-2-carboxamide], the IC50 at human Gal-3 (hGal-3) turned out to be 57 nM; on human Gal-1 (hGal-1), 1240 nM.
